Paper PMC11984924, “Dipeptidic Phosphonates: Potent Inhibitors of Pseudomonas aeruginosa Elastase B Showing Efficacy in a Murine Keratitis Model” (Advanced Science, 2025)

What was measured:
[1] = system: P. aeruginosa strain PA54 keratitis; assay: Murine Pseudomonas keratitis model; assay type: in vivo, mouse
Protocol: Based on our previous findings on target engagement in a murine pneumonia model in combination with a standard‐of‐care antibiotic,^[ [30] ^] we applied the dipeptide (R)‐30 alone and in combination with the commonly used antibiotic meropenem.^[ [9] ^] The keratitis model was carried out using aged female C57BL/6 mice, as previously published.^[ [37] ^] For infection, 5*10^7 colony forming units (CFUs) of PA54 were topically administered on denuded, mechanically harmed corneas. Treatments with meropenem, (R)‐30, or meropenem in combination with (R)‐30 were performed every 8 h for 72 h (first treatment at 6 h post infection). Each of the in total nine 5 µL‐doses contained 1 mg/mL (R)‐30 and/or 0.5 mg mL^−1 meropenem. Sham‐treated mice received 5 µL‐doses of the vehicle (0.9% saline and 1% DMSO) at the time points indicated above, and uninfected eyes received no treatment. […]
Animals: The animal experiments were approved by Saarland University’s Animal Welfare Committee (Application number: 17/2021) and conducted in accordance with German and European recommendations and guidelines for the ethical use of animals. The laboratory animals were all C57BL/6N female eight to eleven months old mice. Keeping in specific pathogen-free conditions was provided. Unlimited access to water and show was secured.
Temperature was closely maintained around 22 °C and relative air humidity around 50%. Light and darkness alternated at twelve-hour intervals. All laboratory animals were purchased from Charles River GmbH, Sulzfeld, Germany.
P. aeruginosa: The P. aeruginosa strain PA54 was employed to induce an experimental bacterial keratitis in the aforementioned C57BL/6N mice. The strain PA54 was isolated from human infections and collected at Saarland University Medical Center’s Institute for Medical Microbiology and Hygienics (IMMH) in 2009. According to Magiorakos et al., PA54 can be classified as multidrug-resistant due to its lacking sensibility to the anti-pseudomonal cephalosporins ceftazidime and cefepime, the anti-pseudomonal fluoroquinolones ciprofloxacin and levofloxacin, the […] fosfomycin, and the aminoglycoside gentamicin.[18] The minimum inhibitory concentration (MIC) of the reserve antibiotic meropenem (meropenem trihydrate, Sigma) was 1 µg/mL (sensitivity limit = 2 µg/mL). The exoU- and exoT-positivity of the PA54 strain, foregrounds its keratitogenic potential.
Inoculum: The P. aeruginosa strain PA54 is routinely grown overnight on blood agar (TrypticaseTM Soy Agar, 5% sheep blood, BD, Heidelberg, Germany) at 37 °C. To obtain a stationary phase cell inoculum, a freshly grown colony was inoculated in tryptic soy broth (TSB; BD, Heidelberg, Germany) and cultured at 37 °C and 150 rounds per minute (rpm) for 16 h.
Then, 2 mL were centrifuged at 13,200 rpm at rt for 2 min, whereupon cells were resuspended in spent medium to an OD600 of 10 (∼1×1010 CFU/mL). Short storage on ice followed, before the infection procedure started.
Infection Procedure: Anesthesia and infection were performed as previously published. Briefly, fentanyl (Hameln Pharma Plus GmbH, Hameln, Germany), midazolam hydrochloride (Midazolam-Hameln, 5 mg/mL, Hameln pharma GmbH, Germany) and medetomidine hydrochloride (Domitor, Orion Corporation, Espoo, Finland) were dissolved in 0.9% NaCl (NaCl 0.9%, Ecotainer 500 mL, B. Braun, Melsungen, Germany), dosed at 0.05 mg/kg, 5 mg/kg and 0.5 mg/kg body weight, respectively, and applied by intraperitoneal injection. Analgesia (Carprofen, 5 mg/kg body weight, Zoetis Deutschland GmbH, Berlin, Germany) was ap plied subcutaneously. Lacrimation was stopped with 10 µL of a 0.6% acetylcysteine solution (Pharmacy of Saarland University Hospitals, Homburg, Germany). Local analgesia (0.5% proxymetacaine hydrochloride, Proparakain -POS Augentropfen, Ursapharm Arzneimitt el GmbH, Saarbrücken, Germany) was eye-dropped and removed after 60 seconds. The blunt […]

[2] = Plasma stability, Göttingen minipig; assay type: in vitro ADME; settings: read-out: Minipig Plasma t1/2
Protocol: To determine stability in plasma, the compound (1 µM) was incubated with pooled CD -1 […]
mouse/human/Wistar rat or Göttingen minipig plasma (Neo Biotech, Nanterre, France).
Samples were taken by mixing aliquots with 4 volumes of acetonitrile containing internal […]
standard (125 nM diphenhydramine). The plasma stability of procain, propantheline and diltiazem were determined in parallel to confirm the enzymatic activity. Samples were stored […]
on ice until the end of the incubation and precipitated protein was removed by centrifugation […]
(15 min, 4 °C, 4,000 g, two centrifugation steps). Concentration of the remaining test compound at the different time points was analyzed by HPLC-MS/MS (TSQ Quantum Access MAX, […]
Thermo Fisher, Dreieich, Germany) and used to determine half-life (t1/2).
Table S2: Additional in vitro ADMET data for selected dipeptides. n.d.: not determined.
Kinetic Liver S9 Clint [µL/mg/min] Plasma t1/2 [min] LogD7.4 […]
pH 7.4 [µM] Mouse Human Mouse Human

SMILES | effect on bacterial loads in the eye ([1]; day 3 post infection) | IL‐1β levels in eye homogenate ([1]; day 3 post infection, compared to sham treatment / uninfected eyes) | KC levels in eye homogenate ([1]; day 3 post infection, compared to uninfected eyes) | median clinical keratitis score ([1]; day three post infection, topical every 8 h for 72 h, 1 mg/mL (R)-30 and/or 0.5 mg/mL meropenem) | half-life at 1 µM [2] [min]
CC(=O)c1ccc(NC(=O)[C@@H](NC(=O)[C@@H](CC(C)C)P(=O)(O)O)C(C)C)cc1 [(R)‐30] | no clear effect on the bacterial loads | significant reduction | significantly higher amounts of this chemokine | 4 | 
CC(=O)c1ccc(NC(=O)[C@@H](NC(=O)C(CC(C)C)P(=O)(O)O)C(C)C)cc1 (some centres unmarked) [compound 30] |  |  |  |  | > 240
